Source: patent US20250320209A1, “Salts and Solid Forms of Sonrotoclax Intermediate” (BeOne Medicines I GmbH, priority 2022, published 2025)

How the values were obtained:
[1] = Salt formation of Compound 2 with seven acids in seven organic solvents: physical form obtained; type: physicochemical; conditions: for physical form of Compound 2 salt: 10 mL, acid 1.73 mmol; for physical form of the obtained salt: in certain organic solvents (summary of Table 1)
Method: In one example, Compound 2 (1.0 g, 1.73 mmol) in MTBE (10 mL) solution and oxalic acid (0.16 g, 1.73 mmol) was added dropwise. The reaction mixture was stirred for about 6 hours and filtered to obtain a wet cake of methyl 4-(2-{(2S)-2-[2-(propan-2-yl)phenyl]pyrrolidin-1-yl}-7-azaspiro[3.5]nonan-7-yl)-2-[(1H-pyrrolo[2,3-b]pyridin-5-yl)oxy]benzoate oxalate salt (Compound 3).
The other acids were used as the following amounts, D-(−)-tartaric (0.26 g, 1.73 mmol), p-toluenesulfonic acid (0.3 g, 1.73 mmol), D-DTTA (0.67 g, 1.73 mmol), Citric acid (0.33 g, 1.73 mmol), Malic acid (0.23 g, 1.73 mmol), Maleic acid (0.20 g, 1.73 mmol); and the other organic solvents were used with 10 mL volume.

[2] = Properties of the solid oxalate salt of Compound 2 as stated in text

Molecule	physical form of Compound 2 salt ([1]; solvent 2-MeTHF)	physical form of Compound 2 salt ([1]; solvent Acetone)	physical form of Compound 2 salt ([1]; solvent DCM)	physical form of Compound 2 salt ([1]; solvent EA)	physical form of Compound 2 salt ([1]; solvent IPAc)	physical form of Compound 2 salt ([1]; solvent MTBE)	physical form of Compound 2 salt ([1]; solvent MeOH)	physical form of the obtained salt [1]	hydroscopic property ([2]; solid (wet cake) obtained from MTBE)	stability ([2]; solid salt, no test described)
Malic acid	Clean solution	Clean solution	Clean solution	oil	oil	moisture	Clean solution	–	–	–
COC(=O)c1ccc(N2CCC3(CC2)CC(N2CCC[C@H]2c2ccccc2C(C)C)C3)cc1Oc1cnc2[nH]ccc2c1.O=C(O)C(=O)O [Compound 3, methyl 4-(2-{(2S)-2-[2-(propan-2-yl)phenyl]pyrrolidin-1-yl}-7-azaspiro[3.5]nonan-7-yl)-2-[(1H-pyrrolo[2,3-b]pyridin-5-yl)oxy]benzoate oxalate salt]	oil	Clean solution	Clean solution	oil	moisture	Fine solid	Clean solution	solid form	low	very good
Cc1ccc(C(=O)O[C@H](C(=O)O)[C@H](OC(=O)c2ccc(C)cc2)C(=O)O)cc1 [D-DTTA]	Clean solution	Clean solution	Clean solution	Clean solution	oil	Fine solid	Clean solution	solid form	–	–
Maleic acid	Clean solution	Clean solution	Clean solution	Clean solution	oil	moisture	Clean solution	–	–	–
Citric acid	oil	Clean	Clean	oil	moisture	moisture	Clean	–	–	–
Cc1ccc(S(=O)(=O)O)cc1 [p-toluenesulfonic acid]	Clean solution	Clean solution	Clean solution	Clean solution	Clean solution	moisture absorption	Clean solution	–	–	–
